These results are taken from PubChem BioAssay (NCI).

Some test systems named below: HT29 colon; HCT-15 colon; RXF 393 renal; HS 578T breast; ACHN renal; MDA-MB-231 breast; CCRF-CEM leukemia; LOX IMVI melanoma; A498 renal; DU-145 prostate; SR leukemia; MDA-N; 786-0 renal; OVCAR-3 ovarian; TK-10 renal; T-47D breast; SK-MEL-2 melanoma; NCI-H522 lung; MCF7 breast; UACC-257 melanoma.
Holding throughout (test): inhibition of tumour cell growth, NCI panel, 48 h

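Where inhibition never reached the appropriate level, the endpoint shown equals the highest concentration tested. Otherwise, values were interpolated linearly from a five-concentration, 48-hour dose response in 96-well plates. Definition used: TGI = concentration required for complete inhibition of growth.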

As for `CN(C)/N=C1/CCC(C(F)(F)F)(C(F)(F)F)O1`, the TGI was greater than 100 µM in the assay with HT29 colon; greater than 100 µM in the assay with HCT-15 colon; greater than 100 µM in the assay with RXF 393 renal; 88.4 µM in the assay with HS 578T breast; greater than 100 µM with ACHN renal; 57.4 µM with MDA-MB-231 breast. Also, the TGI is 90.3 µM in the assay with CCRF-CEM leukemia; 66.5 µM in the assay with LOX IMVI melanoma; 53.1 µM in the assay on A498 renal; greater than 100 µM in the assay on DU-145 prostate; greater than 100 µM with SR leukemia; greater than 100 µM in the assay on MDA-N. In addition, the TGI with 786-0 renal was 93.4 µM; with OVCAR-3 ovarian it was 50.7 µM; with TK-10 renal, greater than 100 µM; in the assay on T-47D breast, greater than 100 µM; in the assay with SK-MEL-2 melanoma, 90.6 µM; in the assay with NCI-H522 lung, 99.3 µM.

For `CCOc1nnnc2nc[nH]c12`, the TGI with HT29 colon, in the assay on HCT-15 colon, with MCF7 breast, in the assay with RXF 393 renal, in the assay with HS 578T breast and in the assay on MDA-MB-231 breast was greater than 100 µM throughout. Also, the TGI in the assay on LOX IMVI melanoma, in the assay with UACC-257 melanoma, in the assay with A498 renal, in the assay with DU-145 prostate, with MDA-N and with 786-0 renal was greater than 100 µM each time. Also, the TGI in the assay on OVCAR-3 ovarian, with TK-10 renal, in the assay on T-47D breast, in the assay with SK-MEL-2 melanoma and in the assay with NCI-H522 lung was greater than 100 µM throughout.

As to `COC1(OC)CCCc2c1no[n+]2[O-]`, the TGI with HT29 colon, in the assay with HCT-15 colon, in the assay with MCF7 breast, in the assay with RXF 393 renal, in the assay on HS 578T breast and in the assay with ACHN renal was greater than 100 µM throughout. Also, the TGI in the assay with MDA-MB-231 breast, with CCRF-CEM leukemia, in the assay with LOX IMVI melanoma, in the assay with UACC-257 melanoma, in the assay with A498 renal and with DU-145 prostate was greater than 100 µM each time. Further, the TGI in the assay with SR leukemia, in the assay on MDA-N, in the assay with 786-0 renal, with OVCAR-3 ovarian, with TK-10 renal and with SK-MEL-2 melanoma was greater than 100 µM throughout. In the assay on NCI-H522 lung, the TGI was greater than 100 µM.

`CC(C)(C)OC/C=C(/CO)[C@@H]1C=C[C@H](O)C1`: the TGI in the assay with HT29 colon, with HCT-15 colon, in the assay with MCF7 breast, in the assay on ACHN renal, in the assay with MDA-MB-231 breast and with CCRF-CEM leukemia was greater than 100 µM in each case. The TGI in the assay with UACC-257 melanoma, with A498 renal, in the assay on MDA-N, in the assay on 786-0 renal, in the assay with OVCAR-3 ovarian and with T-47D breast was greater than 100 µM each time. The compound further came in with a TGI in the assay on SK-MEL-2 melanoma greater than 100 µM.

In the case of `CC(=O)N(C)CCc1c[nH]c2ccccc12`, the TGI in the assay with HT29 colon, in the assay with HCT-15 colon, in the assay on MCF7 breast, in the assay with HS 578T breast, in the assay with ACHN renal and in the assay with MDA-MB-231 breast was greater than 100 µM in each case. The TGI in the assay on CCRF-CEM leukemia, in the assay with LOX IMVI melanoma, in the assay with UACC-257 melanoma, with DU-145 prostate, in the assay on SR leukemia and in the assay with MDA-N was greater than 100 µM each time. For the same compound, the TGI in the assay on 786-0 renal, in the assay with OVCAR-3 ovarian, with TK-10 renal, in the assay on T-47D breast, in the assay with SK-MEL-2 melanoma and in the assay on NCI-H522 lung was greater than 100 µM each time.

Regarding `COCOC1C=CCCCC2=CC(C)=C(CC1)O2` (stereo not drawn), the TGI with HT29 colon, in the assay on HCT-15 colon, in the assay on MCF7 breast, in the assay on RXF 393 renal, in the assay with HS 578T breast and with ACHN renal was greater than 100 µM throughout. The TGI in the assay with MDA-MB-231 breast, in the assay on CCRF-CEM leukemia, in the assay with LOX IMVI melanoma, with UACC-257 melanoma, with A498 renal and in the assay with DU-145 prostate was greater than 100 µM throughout. Further, the TGI with SR leukemia, in the assay on MDA-N, with 786-0 renal, in the assay on OVCAR-3 ovarian, with TK-10 renal and in the assay on NCI-H522 lung was greater than 100 µM in each case.

As for `O=C(CC(C(=O)c1ccsc1)c1ccccc1)c1ccccc1` (stereo not drawn), the TGI in the assay with HT29 colon, with HCT-15 colon, in the assay with MCF7 breast, in the assay on RXF 393 renal, in the assay with HS 578T breast and in the assay with ACHN renal was greater than 100 µM throughout. Also, the TGI in the assay on CCRF-CEM leukemia, in the assay with LOX IMVI melanoma, in the assay with UACC-257 melanoma, with A498 renal, in the assay with DU-145 prostate and in the assay on SR leukemia was greater than 100 µM throughout. Moreover, the TGI with MDA-N, with 786-0 renal, with OVCAR-3 ovarian, with TK-10 renal, in the assay with T-47D breast and in the assay on NCI-H522 lung was greater than 100 µM in each case.

`C=CCN1CCC(O)(c2cc(C(=O)OCC)[nH]c2-c2cc(C)no2)C1` (stereo not drawn): the TGI in the assay with HT29 colon, in the assay with HCT-15 colon, with RXF 393 renal, with ACHN renal, with MDA-MB-231 breast and with CCRF-CEM leukemia was greater than 100 µM throughout. Further, the TGI with LOX IMVI melanoma, in the assay on UACC-257 melanoma, in the assay on A498 renal, in the assay with DU-145 prostate, in the assay on MDA-N and in the assay with 786-0 renal was greater than 100 µM in each case. In addition, the TGI with OVCAR-3 ovarian, in the assay on TK-10 renal, in the assay with T-47D breast, with SK-MEL-2 melanoma and with NCI-H522 lung was greater than 100 µM throughout.
